Each block holds one compound with its values, some of them ahead of it.
Key:
[1] = tested on: Bord. bronchiseptica ATCC 4617; assay: Bactericidal endpoint (time for complete sterilization), ATCC 4617; format: cell-based
Text: (§1) The procedure employed to determine the antibacterial activity of 3-chloro-2,2,4,4-tetramethyl-tetrahydro1,3-oxazolidine and 3-chloro-2,2-[spiro-1'-methyl-4'-piperidinyl]-4,4-dimethyl-1,3-oxazolidinewas based primarily on a modification of the serial dilution method of analysis. However, instead of determining the minimum inhibitory concentration parameters for the compound investigated, applicants alternatively chose to determine the bactericidal endpoint for a given concentration of the compound investigated. Consequently, applicants' studies were established to determine the time required for complete sterilization of the micro-organism tested, when exposed to a given concentration of the compound investigated.
(§2) A stock solution of each compound identified above was prepared using an appropriate buffered solution.
(§3) For screening in the absence of a denaturing agent (e.g., horse serum) an equal volume of distilled water and the resulting solution was subjected to the screen.
(§4) For screening in the presence of a denaturing agent, a volume of the stock solution was diluted using an equal volume of 10% horse serum. When necessary, the final solution was adjusted to the desired pH using 1N HCl and the solution was permitted to stand at room temperature for thirty minutes prior to the screening procedure.
(§5) To 5 ml of the stock solution being evaluated, there was added 0.2 ml of an overnight broth culture containing the particular micro-organism being investigated (see above). At time intervals of 0.5, 1, 2, 3, 4, 5, . . . minutes, a loop of this suspension was subcultured into 5 ml of a sterile nutrient broth. All the samples were then incubated at 37°C for seven days with daily observation for evidence of bacterial growth. The time interval reported is for that sample in which no bacterial growth was observed after the incubation period.

[2] = tested on: Kleb. pneumoniae ATCC 10031; assay: Bactericidal endpoint (time for complete sterilization), ATCC 10031; format: cell-based
Text: as §1, §2, §3, §4, §5

Staph. aureus ATCC 6538 = assay: Bactericidal endpoint (time for complete sterilization), ATCC 6538; format: cell-based
Text: as §1, §2, §3, §4, §5

[3] = Stability analysis in buffered solution (half-life); format: physicochemical
[4] = tested on: Pseud. aeruginosa ATCC 9027; assay: Bactericidal endpoint (time for complete sterilization), ATCC 9027; format: cell-based; details: for Antibacterial activity, time, 9027: 0.5 M NaH2PO4 pH 7.0
Text: as §1, §2, §3, §4, §5

[5] = tested on: Staph. epidermidis ATCC 12228; assay: Bactericidal endpoint (time for complete sterilization), ATCC 12228; format: cell-based
Text: as §1, §2, §3, §4, §5

E. coli ATCC 10536 = assay: Bactericidal endpoint (time for complete sterilization), ATCC 10536; format: cell-based
Text: as §1, §2, §3, §4, §5

6501 = assay: Bactericidal endpoint (time for complete sterilization), 6501; format: cell-based
Text: as §1, §2, §3, §4, §5

[6] = 0.1M Na2B4O7 pH 8.8, H2O, 8.13 × 10^-3 M (1333 ppm)
[7] = 0.1M Na2B4O7 pH 8.8, Serum, 8.13 × 10^-3 M (1333 ppm)
[8] = 0.1M NaH2PO4 pH 7.00, H2O, 8.92 × 10^-3 M (1463 ppm)
[9] = 0.1M NaH2PO4 pH 7.00, Serum, 8.92 × 10^-3 M (1463 ppm)
[10] = 0.1M NaOAc pH 4.6, H2O, 8.26 × 10^-3 M (1355 ppm)
[11] = 0.1M NaOAc pH 4.6, Serum, 8.26 × 10^-3 M (1355 ppm)
[12] = 0.5 M NaH2PO4 pH 7.0, H2O, 20.75 × 10^-3 M (4525 ppm)
[13] = 0.5 M NaH2PO4 pH 7.0, Serum, 19.88 × 10^-3 M (4334 ppm)
[14] = 0.5 M NaOAc pH 4.6, H2O, 21.00 × 10^-3 M (4578 ppm)
[15] = 0.5 M NaOAc pH 4.6, Serum, 20.50 × 10^-3 M (4469 ppm)
[16] = 0.1 M NaOAc pH 4.6, H2O, 6.52 × 10^-3 M (1428 ppm)
[17] = 0.1 M NaOAc pH 4.6, Serum, 5.69 × 10^-3 M (1246 ppm)

half-life at 1520 µM ([3]; 0.1 M Na2B4O7 pH 9.3, 40 °C, initial concentration 1.52 × 10^-3 M): ~5 h
half-life at 2490 µM ([3]; 0.1 M Na2B4O7 pH 9.3, 40 °C, initial concentration 2.49 × 10^-3 M): ~4.6 h
half-life at 5980 µM ([3]; 0.1 M Na2B4O7 pH 9.3, 40 °C, initial concentration 5.98 × 10^-3 M): ~3.3 h
half-life at 1680 µM ([3]; 0.1 M NaH2PO4 pH 7.0, 40 °C, initial concentration 1.68 × 10^-3 M): ~70 h
half-life at 3050 µM ([3]; 0.1 M NaH2PO4 pH 7.0, 40 °C, initial concentration 3.05 × 10^-3 M): ~54 h
half-life at 6700 µM ([3]; 0.1 M NaH2PO4 pH 7.0, 40 °C, initial concentration 6.70 × 10^-3 M): ~54 h
half-life at 1880 µM ([3]; 0.1 M NaOAc pH 4.6, 40 °C, initial concentration 1.88 × 10^-3 M): 2.2 h
half-life at 2590 µM ([3]; 0.1 M NaOAc pH 4.6, 40 °C, initial concentration 2.59 × 10^-3 M): 2.2 h
half-life at 5470 µM ([3]; 0.1 M NaOAc pH 4.6, 40 °C, initial concentration 5.47 × 10^-3 M): 2.6 h
half-life at 6230 µM ([3]; H2O, initial concentration 6.23 × 10^-3 M): ~58 h
SMILES: CC1(C)COC(C)(C)N1Cl [3-chloro-2,2,4,4-tetramethyl-tetrahydro-1,3-oxazolidine]
Germicidal activity time, 4617 [1, 6]: 3 min
Germicidal activity time, 4617 [1, 7]: 8 min
Germicidal activity time, 4617 [1, 8]: 1 min
Germicidal activity time, 4617 [1, 9]: > 10 min
Germicidal activity time, 4617 [1, 10]: 0.5 min
Germicidal activity time, 4617 [1, 11]: 6 min
Germicidal activity time, 10031 [2, 6]: 4 min
Germicidal activity time, 10031 [2, 7]: 9 min
Germicidal activity time, 10031 [2, 8]: 0.5 min
Germicidal activity time, 10031 [2, 9]: 5 min
Germicidal activity time, 10031 [2, 10]: 0.5 min
Germicidal activity time, 10031 [2, 11]: > 10 min
Germicidal activity time, 6538 (Staph. aureus ATCC 6538; [6]): > 5 min
Germicidal activity time, 6538 (Staph. aureus ATCC 6538; [7]): > 10 min
Germicidal activity time, 6538 (Staph. aureus ATCC 6538; [8]): 3 min
Germicidal activity time, 6538 (Staph. aureus ATCC 6538; [9]): > 10 min
Germicidal activity time, 6538 (Staph. aureus ATCC 6538; [10]): 0.5 min
Germicidal activity time, 6538 (Staph. aureus ATCC 6538; [11]): > 10 min
Germicidal activity time, 9027 [4, 6]: 2 min
Germicidal activity time, 9027 [4, 7]: 4 min
Germicidal activity time, 9027 [4, 8]: 1 min
Germicidal activity time, 9027 [4, 9]: 7 min
Germicidal activity time, 9027 [4, 10]: 0.5 min
Germicidal activity time, 9027 [4, 11]: 4 min
Germicidal activity time, 12228 [5, 6]: > 5 min
Germicidal activity time, 12228 [5, 7]: > 10 min
Germicidal activity time, 12228 [5, 8]: 1 min
Germicidal activity time, 12228 [5, 9]: 6 min
Germicidal activity time, 12228 [5, 10]: 0.5 min
Germicidal activity time, 12228 [5, 11]: > 10 min
Germicidal activity time, 10536 (E. coli ATCC 10536; [6]): 2 min
Germicidal activity time, 10536 (E. coli ATCC 10536; [7]): 4 min
Germicidal activity time, 10536 (E. coli ATCC 10536; [8]): 0.5 min
Germicidal activity time, 10536 (E. coli ATCC 10536; [9]): 3 min
Germicidal activity time, 10536 (E. coli ATCC 10536; [10]): 0.5 min
Germicidal activity time, 10536 (E. coli ATCC 10536; [11]): 3 min

SMILES: CN1CCC2(CC1)OCC(C)(C)N2Cl [3-chloro-2,2-[spiro-1'-methyl-4'-piperidinyl]-4,4-dimethyl-1,3-oxazolidine]
Antibacterial activity, time, 4617 [1, 12]: 0.5 min
Antibacterial activity, time, 4617 [1, 13]: 5 min
Antibacterial activity, time, 4617 [1, 14]: 0.5 min
Antibacterial activity, time, 4617 [1, 15]: 1 min
Antibacterial activity, time, 10031 [2, 16]: 0.5 min
Antibacterial activity, time, 10031 [2, 17]: 7 min
Antibacterial activity, time, 10031 [2, 12]: 1 min
Antibacterial activity, time, 10031 [2, 13]: 8 min
Antibacterial activity, time, 10031 [2, 14]: 0.5 min
Antibacterial activity, time, 10031 [2, 15]: 0.5 min
Antibacterial activity, time, 6538 (Staph. aureus ATCC 6538; [16]): 5 min
Antibacterial activity, time, 6538 (Staph. aureus ATCC 6538; [17]): > 10 min
Antibacterial activity, time, 6538 (Staph. aureus ATCC 6538; [12]): 1 min
Antibacterial activity, time, 6538 (Staph. aureus ATCC 6538; [13]): > 10 min
Antibacterial activity, time, 6538 (Staph. aureus ATCC 6538; [14]): 0.5 min
Antibacterial activity, time, 6538 (Staph. aureus ATCC 6538; [15]): 3 min
Antibacterial activity, time, 9025 [4, 16]: 0.5 min
Antibacterial activity, time, 9025 [4, 17]: > 10 min
Antibacterial activity, time, 9027 ([4]; H2O, 20.75 × 10^-3 M (4525 ppm)): 1 min
Antibacterial activity, time, 9027 ([4]; Serum, 19.88 × 10^-3 M (4334 ppm)): 10 min
Antibacterial activity, time, 9025 [4, 14]: 0.5 min
Antibacterial activity, time, 9025 [4, 15]: 1 min
Antibacterial activity, time, 12228 [5, 16]: 1 min
Antibacterial activity, time, 12228 [5, 17]: > 10 min
Antibacterial activity, time, 12228 [5, 12]: 1 min
Antibacterial activity, time, 12228 [5, 13]: 5 min
Antibacterial activity, time, 12228 [5, 14]: 0.5 min
Antibacterial activity, time, 12228 [5, 15]: 2 min
Antibacterial activity, time, 6501 6501; [16]: 0.5 min
Antibacterial activity, time, 6501 6501; [17]: 3 min
Antibacterial activity, time, 6501 6501; [12]: 1 min
Antibacterial activity, time, 6501 6501; [13]: 7 min
Antibacterial activity, time, 6501 6501; [14]: 0.5 min
Antibacterial activity, time, 6501 6501; [15]: 0.5 min
Antibacterial activity, time, 10536 (E. coli ATCC 10536; [16]): 0.5 min
Antibacterial activity, time, 10536 (E. coli ATCC 10536; [17]): 2 min
Antibacterial activity, time, 10536 (E. coli ATCC 10536; [12]): 0.5 min
Antibacterial activity, time, 10536 (E. coli ATCC 10536; [13]): 7 min
Antibacterial activity, time, 10536 (E. coli ATCC 10536; [14]): 0.5 min
Antibacterial activity, time, 10536 (E. coli ATCC 10536; [15]): 0.5 min

— patent US3954985A, “Method for inhibiting bacterial growth with certain selected 3-chloro-tetrahydro-1,3-oxazines or oxazolidines” (INTERx Research Corporation, priority 1975, dated 1976)
